The results in this text go back to PMC4033659 (Journal of Medicinal Chemistry, 2014).

The data set is described as follows: In vivo PK in rats after ip administration. The note with it: rat, ip 10 mg/kg, at Tmax 30 min.
Consider `COc1cc(C(=O)O)ccc1OCCCCOc1ccc(C(=O)CC(C)C)c(O)c1C` [Compound 44, 4-{4-[3-Hydroxy-2-methyl-4-(3-methylbutanoyl)phenoxy]butoxy}-3-methoxybenzoic Acid], for which the “brain (maximum concentration)” value came to 0.23 ± 0.10 µM and the “plasma (maximum concentration)” value was 10.57 ± 2.52 µM.

For `Cc1c(OCCCCOc2ccc(F)c(C(=O)O)c2)ccc(C(=O)C(C)C)c1O` [Compound 65, 2-Fluoro-5-(4-(3-hydroxy-4-isobutyryl-2-methylphenoxy)butoxy)benzoic Acid], the “plasma (maximum concentration)” value turned out to be 5.44 ± 2.92 µM.

Turning to `CCCC(=O)c1ccc(OCCCCOc2cc(C(=O)O)ccc2OC)c(C)c1O` [Compound 68, 3-(4-(4-Butyryl-3-hydroxy-2-methylphenoxy)butoxy)-4-methoxybenzoic Acid], the “plasma (maximum concentration)” value was 2.18 ± 0.58 µM. Still for that read-out and setting: in the case of `COc1ccc(C(=O)O)cc1OCCCCOc1ccc(C(=O)CC(C)(C)C)c(O)c1C` [Compound 72, 3-(4-(4-(3,3-Dimethylbutanoyl)-3-hydroxy-2-methylphenoxy)butoxy)-4-methoxybenzoic Acid] it was 2.44 ± 2.19 µM. Regarding `Cc1c(OCCCCOc2ccc(F)c(C(=O)O)c2)ccc(C(=O)CC(C)(C)C)c1O` [Compound 75, 5-(4-(4-(3,3-Dimethylbutanoyl)-3-hydroxy-2-methylphenoxy)butoxy)-2-fluorobenzoic Acid], the “brain (maximum concentration)” value was determined as 0.22 ± 0.04 µM and the “plasma (maximum concentration)” value came out at 6.52 ± 0.54 µM.
